Measured values from patent US8193213B2, “Spermicidal and/or antifungal composition and methods of using the same” (priority 2003, dated 2012).
Marks after values point to notes of the source that are not given here.

Columns and labels:
Format in all cases: cell-based
[1] = test system: Candida albicans; experiment: Antifungal susceptibility testing (NCCLS, MIC/MFC) against C. albicans; design: Lowest [Active]: unit not given here; conditions: for CFU for MFC at 100 / CFU for MFC at 200 / CFU for MFC at 300 / Lowest [Active]: C. albicans (19 hours); for CFU for MFC at 100: concentration 100; for CFU for MFC at 200: concentration 200; for CFU for MFC at 300: concentration 300; for Lowest [Active]: concentrations 300, 200, 100, unit not given, N/A = no active concentration; for Lowest MIC: lowest concentration that appears to have no growth; for Lowest MFC: lowest concentration that kills >= 98% of the cells in the well
Description: (§1) Antifungal susceptibility testing was performed following the NCCLS guidelines with minor modifications. Briefly, a suspension of Candida albicans cells was prepared from pure cultures grown overnight on yeast-malt extract (YM) agar at 35° C. Several small colonies were removed from a YM agar plate and transferred to 5 ml of 0.85% saline. The cells were suspended by 15 seconds of vortexing and the cell density of the resulting suspension was determined using a spectrophotometer. The cell density was adjusted by addition of 0.85% saline until the transmittance matched that of a 0.5 McFarland standard when measured at a wavelength of 530 nm. An aliquot of this suspension was diluted 1:1000 in RPMI-MOPS to yield a working suspension. A similar suspension of Aspergillus fumigatus spores was obtained by using spores stored at […] in 0.85% saline. These spores were diluted in 0.85% saline to match the McFarland standard transmittance. This suspension was then further diluted 1:50 in RPMI-MOPS to produce the working inoculum suspension.
(§2) Dilution series of the test compounds were made in RPMI-MOPS containing 2% DMSO. An aliquot of each dilution was added in duplicate to the wells of a sterile 96-well, flat bottom microtiter plate. Then, an aliquot of either the C. albicans cell suspension or the A. fumigatus spore suspension were added to each well for a final volume of 200 μl. The plates were then incubated at […]. […] A similar determination was made for the A. fumigatus plates after 48 hours. […] The numbers of colony forming units (CFU) were counted and these values used to calculate the percent survival of cells or spores in inocula relative to the number of CFUs in the working inoculum suspension. The minimum fungicidal concentration (MFC) was the lowest concentration of test compound with a percent survival of less than 2%.

[2] = test system: Aspergillus fumigatus; experiment: Antifungal susceptibility testing (NCCLS, MIC/MFC) against A. fumigatus; design: Lowest [Active]: unit not given here; conditions: for CFU for MFC at 100 / CFU for MFC at 200 / CFU for MFC at 300 / Lowest [Active]: A. fumigatus (48 hours); for CFU for MFC at 100: concentration 100; for CFU for MFC at 200: concentration 200; for CFU for MFC at 300: concentration 300; for Lowest [Active]: concentrations 300, 200, 100, unit not given, N/A = no active concentration; for Lowest MIC / Lowest MFC: A. fumigatus; for Lowest MIC: lowest concentration that appears to have no growth; for Lowest MFC: lowest concentration that kills >= 98% of the cells in the well
Description: as §1, §2

[3] = test system: rabbit ejaculated sperm; experiment: Direct effect on sperm motility, rabbit ejaculated sperm; conditions: for Motility (%) at 60 Minutes: rabbit ejaculate diluted 1:10, 34° C., control 76.6
Description: (§3) Method for Determining Direct Effect of an Agent on Sperm Motility The direct effect of an agent on sperm motility was determined by using the following protocols. Basically, sperm are obtained either from the cauda epididymis, as in the case of the rat, or ejaculated sperm collected using an artificial vagina, as in the rabbit. The initial motility of the sperm is determined manually or by using a Hamilton Thorn IVOS sperm analyzer. The sperm are then kept at a constant temperature of 34° C., diluted to a consistent concentration of 10×10^6/ml, and added to about 3 ml of buffer or media. The motility is determined again at this point and any change is recorded. Different concentrations of the agent to be tested are then added to the sperm preparation. The sperm samples are then held at the same temperature for one hour and the motility is determined. The results are recorded as the percent of motile sperm in the sample. The Sperm were kept at 34° C. throughout the experimental period. Sperm concentration was be approximately 10×10^6/ml (note, the sample may have had to be diluted with buffer or media to reach this concentration). For the Rabbit Studies: (Using Ejaculated Sperm) A 1 mM stock of the indenopyridine in M-199 media with BSA (2.5 mg in 5=0.5 ug/ul; 0.5 ug/ml=1 uM) was prepared and added as follows: 1 uM=1 ul stock+949 ul M-199 media with BSA+50 ul of the diluted sperm 3 uM=3 ul stock+947 ul M-199 media with BSA+50 ul of the diluted sperm 10 uM=10 ul stock+940 ul M-199 media with BSA+50 ul of the diluted sperm 30 uM=30 ul stock+920 ul M-199 media with BSA+50 ul of the diluted sperm 100 uM=100 ul stock+850 ul M-199 media with BSA+50 ul of the diluted sperm 300 uM=300 ul stock+650 ul M-199 media with BSA+50 ul of the diluted sperm 1000 uM=1000 ul stock+50 ul of the diluted sperm Sperm motility was determined after 1 hour. Slides were made to determine morphology changes and eosin was added to determine cell death.

[4] = test system: rat cauda sperm; experiment: Direct effect on sperm motility, rat cauda epididymis sperm; conditions: control: progressive motility
Description: as §3, with “the Rat” for “the Rabbit”, “(Using Sperm from the Cauda Epididymis)” for “(Using Ejaculated Sperm)”, “in HBSS buffer+BSA (5” for “in M-199 media with BSA (2.5”, “in 10=0.5” for “in 5=0.5”, “ul HBSS buffer+BSA+50” for “ul M-199 media with BSA+50”, “Sperm Motility” for “Sperm motility”

| SMILES | CFU for MFC at 100 [1] | CFU for MFC at 200 [1] | CFU for MFC at 300 [1] | Lowest [Active] [1] | CFU for MFC at 100 [2] | CFU for MFC at 200 [2] | CFU for MFC at 300 [2] | Lowest [Active] [2] | Lowest MIC ([1]; C. albicans) [µg/mL] | Lowest MFC ([1]; C. albicans) [µg/mL] | Lowest MIC [2] [µg/mL] | Lowest MFC [2] [µg/mL] | further results |
| --- | --- | --- | --- | --- | --- | --- | --- | --- | --- | --- | --- | --- | --- |
| CCN1CCC2=C(c3ccc(C)cc3)c3cc(C)ccc3C2C1.Cl (racemic) [Compound 4587-040] | Cidal (Cidal = >98% killed) | Cidal (Cidal = >98% killed) | Cidal (Cidal = >98% killed) | 100 | Cidal (Cidal = >98% killed) | Cidal (Cidal = >98% killed) | Cidal (Cidal = >98% killed) | 100 |  |  |  |  |  |
| CCCOC(=O)c1ccc(C2c3cc(C)ccc3C3CN(CC)CCC32)cc1.Cl (racemic) [Compound 4587-062] |  |  |  |  |  |  |  |  | 20 | 20 | 10 | 10 |  |
| CCc1ccc2c(c1)[C@@H](c1ccc(C(=O)OC)cc1)[C@@H]1CCN(CC)C[C@H]21.Cl (racemic) [Compound 4587-064] | Static (Static = well looked clear, but <98% killed) | Cidal (Cidal = >98% killed) | Cidal (Cidal = >98% killed) | 100 | Cidal (Cidal = >98% killed) | Cidal (Cidal = >98% killed) | Cidal (Cidal = >98% killed) | 100 | 100 | 100 | 50 | 75 |  |
| C[C@@H]1[C@H](O)[C@@H](C)/C=C/C=C/C=C/C=C/C=C/C=C/C=C/[C@H](O[C@@H]2O[C@H](C)[C@@H](O)[C@H](N)[C@@H]2O)C[C@@H]2O[C@](O)(C[C@@H](O)C[C@@H](O)[C@H](O)CC[C@@H](O)C[C@@H](O)CC(=O)O[C@H]1C)C[C@H](O)[C@H]2C(=O)O [AMP B, reference compound] |  |  |  |  |  |  |  |  | 0.5 |  | 2 |  |  |
| CCN1CCC2C(C1)c1ccc(C)cc1C2c1ccc(C)cc1.Cl (centres unmarked) [Compound 4587-002d] |  |  |  |  |  |  |  |  | 50 |  | 50 | 50 | Lowest MFC (class word) ([1]; C. albicans): fungistatic (Fungistatic = compound with an MIC, but <98% of cells killed) |
| CCN1CCC2C(C1)c1ccc(C)cc1C2c1ccc(C)cc1.Cl (centres unmarked) [Compound 4587-002l] |  |  |  |  |  |  |  |  | 75 | 100 | 50 | 75 |  |
| CCN1CCC2C(C1)c1ccc(C)cc1C2c1ccc(C)cc1.Cl (centres unmarked) [Compound 4587-003] |  |  |  |  |  |  |  |  | 50 | 75 | 25 | 25 |  |
| CCN1CCC2C(C1)c1ccc(C)cc1C2c1ccc(C(=O)OC)cc1.Cl (centres unmarked) [Compound 4587-056l] |  | Cidal (Cidal = >98% killed) | Cidal (Cidal = >98% killed) | 200 | Cidal (Cidal = >98% killed) | Cidal (Cidal = >98% killed) | Cidal (Cidal = >98% killed) | 100 |  |  |  |  |  |
| CCN1CCC2C(C1)c1cc(I)c(C)cc1C2c1ccc(C(=O)OC)cc1.Cl (centres unmarked) [Compound 4587-073d] | Static (Static = well looked clear, but <98% killed) | Cidal (Cidal = >98% killed) | Cidal (Cidal = >98% killed) | 100 | Cidal (Cidal = >98% killed) | Cidal (Cidal = >98% killed) | Cidal (Cidal = >98% killed) | 100 |  |  |  |  |  |
| CCN1CCC2C(C1)c1cc(I)c(C)cc1C2c1ccc(C(=O)OC)cc1.Cl (centres unmarked) [Compound 4587-073l] | Cidal (Cidal = >98% killed) | Cidal (Cidal = >98% killed) | Cidal (Cidal = >98% killed) | 100 | Cidal (Cidal = >98% killed) | Cidal (Cidal = >98% killed) | Cidal (Cidal = >98% killed) | 100 |  |  |  |  | Motility (%) at 60 Minutes ([3]; +1 μM): 73.0%; Motility (%) at 60 Minutes ([3]; +3 μM): 68.4%; Motility (%) at 60 Minutes ([3]; +10 μM): 67.6%; Motility (%) at 60 Minutes ([3]; +30 μM): 61.9%; Motility (%) at 60 Minutes ([3]; +100 μM): 15.2 * %; Motility (%) at 60 Minutes ([3]; +300 μM): 0%; Motility (%) at 60 Minutes ([3]; +1000 μM): 0 ** %; Quality of motility (footnote *) ([3]; rabbit sperm, +100 μM, 60 minutes): * Motility not progressive - twitching; Sperm appearance ([3]; rabbit sperm, +1000 μM, 60 minutes): ** Sperm appeared to be “disintegrating”- sperm heads contain many vacuoles and membranes are not always intact; Motility (%) at 60 Minutes (in words) ([4]; +1 μM): Progressive motility-equal to control; Motility (%) at 60 Minutes (in words) ([4]; +3 μM): Progressive motility diminished; Motility (%) at 60 Minutes (in words) ([4]; +10 μM): No progressive motility - twitching; Motility (%) at 60 Minutes (in words) ([4]; +30 μM): Same as for 10 μM; Motility (%) at 60 Minutes (in words) ([4]; +100 μM): Death |
| CCN1CCC2=C(c3ccc(OC)cc3)c3cc(C)ccc3C2C1.Cl (centres unmarked) [Compound 4587-082] |  |  |  |  |  |  |  |  | >100 |  | 100 | 100 |  |
| CC(=O)N1CCN(c2ccc(OCC3COC(Cn4ccnc4)(c4ccc(Cl)cc4Cl)O3)cc2)CC1 (centres unmarked) [Ketaconazole, reference compound] |  |  |  |  |  |  |  |  | 32 |  | 8 |  |  |
